Results published in patent US20030113742A1, “Methods and compositions for the modulation of biofilm formation” (priority 2001, published 2003).

Tests used:
[1] = test system: P. aeruginosa wild-type and rpoS mutant biofilms; test: Killing of wild-type and rpoS mutant biofilms by tobramycin; type: cell-based, Pseudomonas aeruginosa; conditions: increasing amounts of tobramycin
Experimental: To examine the involvement of rpoS in biofilm development, the wild-type strain and an isogenic rpoS mutant strain were grown in flow cell reactors and both were tagged with a gfp plasmid which expresses green fluorescent protein (GFP) (Whitely, et al. (2000) J. Bacteriology 182:4356-4360). The P. aeruginosa biofilms that developed in the flow cells were examined by scanning confocal laser microscopy. Within four hours, differences between the rpoS mutant and the wild-type biofilms were evident. The mutant had attached to and covered much more of the glass surface. In a quantitative microtitre dish assay, biofilm formation of the parent strain was 38% of the rpoS mutant. After 24 hours, the mutant biofilm had matured and large structured groups of bacteria were evident.
To assess whether rpoS influences the susceptibility of P. aeruginosa biofilms to antibiotics, biofilms of the P. aeruginosa wild-type and rpoS mutant were treated with increasing amounts of the aminoglycoside antibiotic tobramycin. […] These studies confirm that the microarray experiment, as described herein, identified a gene important for biofilm development and antibiotic susceptibility.

[2] = test system: planktonic P. aeruginosa PAO1; test: Minimum inhibitory concentration for planktonic cells; type: cell-based, Pseudomonas aeruginosa PAO1
P. aeruginosa biofilms [3] = test: Microarray of genes regulated by tobramycin in P. aeruginosa biofilms; type: cell-based, Pseudomonas aeruginosa PAO1; conditions: for Fold activation ± SE: tobramycin 5 μg/ml 24 h, treated vs untreated biofilms
Experimental: (§1) P. aeruginosa PAO1 was grown at 37° C. with aeration in chemostat vessels (100 ml of medium, dilution rate, 0.2 h^−1). The growth medium consisted of 0.5% NH4Cl, 0.25% NaCl, 0.015% KH2PO4, 1.5% MOPS (pH, 7.0), and 0.015% casamino acids. For biofilms, the chemostat vessel contained 100 g of sterilized granite pebbles (approximately 70 pebbles). Vessels were inoculated with approximately 10^6 P. aeruginosa cells. For biofilm cultures, cells were allowed to attach to the rocks for 24 h prior to initiating the flow of medium, after which flow was initiated at a high rate (100 ml/h). After 2 h at this flow rate, more than 99% of all unattached bacteria were washed away. Flow was then decreased to give a final dilution rate identical to that in the planktonic chemostat. After 5 days cell numbers in the biofilm and planktonic chemostats were similar ([…]) as determined with standard plate counting techniques. To remove biofilm bacteria for plate counting, rocks were vortexed for 2 minutes in 5 ml phosphate buffered saline. A small planktonic population was present in the biofilm reactors throughout the experiment, but never represented more than 0.1% of the total chemostat population.
RNA was isolated from planktonic and biofilm bacteria using the Trizol reagent (Life Technologies, Grand Island, N.Y.). Planktonic cells were pelleted by centrifugation (10,000 rpm for 10 min) at 4° C. For biofilm RNA isolation, rocks containing biofilm bacteria were rinsed with sterile medium and suspended in Trizol reagent. After vortexing for 1 min the rocks were removed and the remaining cell material was sonicated for 10 s. Insoluble material was removed by centrifugation and RNA was isolated as described above. Contaminating DNA was eliminated by DNase treatment, and RNA was isolated by phenol-chloroform extraction and precipitation with LiCl. cDNA probes were produced from RNA using random primers (NSNSNSNSNS) and Cy5-dCTP or Cy3-dCTP (Amersham, Buckinghamshire, UK) according to previously described procedures (J. K. Ichikawa, et al., Proc. Natl. Acad. Sci. U.S.A. 97, 9659 (2000)). To avoid complications associated with Cy5-dCTP and Cy3-dCTP incorporation rates into resulting cDNA, each RNA comparison was performed with both dye combinations on separate microarrays.
The microarrays were glass microscope slides containing representative gene-specific DNA fragments from 5,500 of the estimated 5,570 open reading frames (ORFs) of P. aeruginosa. The microarrays were printed with a Generation II Array printer (Molecular Dynamics), and the hybridized microarrays were images with a Generation II scanning confocal fluorescent microscope (Molecular Dynamics).
The existence in a biofilm might induce moderate levels of resistance to all antimicrobial treatments. This could afford cells in a biofilm the opportunity to respond to an antibiotic by inducing genes more specific to that antibiotic. Thus, biofilms exposed to tobramycin were compared with untreated biofilms. Tobramycin (5 μg/ml) was added to influent medium after 4 days of biofilm growth. After 24 h, biofilms were removed and processed for RNA.
The results (shown in Table 2, below) are from two independent experiments (1 standard error of the mean, SE). Positive values represent activation and negative values represent repression. Gene identifications and P. aeruginosa ORF numbers were obtained from the Pseudomonas Genome Project website. Genes that were repressed in biofilms and activated by tobramycin are underlined. Genes that were activated in biofilms and repressed by tobramycin are shown in italics and bold-face type. Eight of the 20 genes identified as being differentially expressed in tobramycin-treated biofilms (Table 2) were also identified as being differentially expressed in biofilms as compared to planktonic bacterial cells. […]

P. aeruginosa biofilms [4] = test: Plate counting of biofilm cell numbers after tobramycin; type: cell-based, Pseudomonas aeruginosa PAO1; conditions: 5 μg/ml
Experimental: as §1
The existence in a biofilm might induce moderate levels of resistance to all antimicrobial treatments. […]

[5] = tobramycin-treated vs untreated biofilms, 7× MIC for planktonic cells

## NC[C@H]1O[C@H](O[C@H]2[C@H](O)[C@@H](O[C@H]3O[C@H](CO)[C@@H](O)[C@H](N)[C@H]3O)[C@H](N)C[C@@H]2N)[C@H](N)C[C@@H]1O [tobramycin]
[1]
  resistance of rpoS mutant biofilms to killing by tobramycin compared with wild-type biofilms: much more resistant
[2]
  5 μg/ml concentration as multiple of the minimum inhibitory concentration: approximately 7 ×
P. aeruginosa biofilms [3]; gene: Conserved hypothetical protein (PA2498)
  Fold activation ± SE: 2.9 ± 0.6 Fold
P. aeruginosa biofilms [3]; gene: Conserved hypothetical protein (PA3463)
  Fold activation ± SE: 8.3 ± 3.2 Fold
P. aeruginosa biofilms [3]; gene: Conserved hypothetical protein (PA3785)
  Fold activation ± SE: 5.0 ± 1.3 Fold
P. aeruginosa biofilms [3]; gene: Conserved hypothetical protein (PA3819)
  Fold activation ± SE: 2.1 ± 0.3 Fold
P. aeruginosa biofilms [3]; gene: DnaK (PA4761)
  Fold activation ± SE: 2.7 ± 0.4 Fold
P. aeruginosa biofilms [3]; gene: GroES (PA4386)
  Fold activation ± SE: 5.8 ± 1.1 Fold
P. aeruginosa biofilms [3]; gene: Hypothetical protein (PA1110)
  Fold activation ± SE: 8.7 ± 1.7 Fold
P. aeruginosa biofilms [3]; gene: Hypothetical protein (PA1870), negative = repression
  Fold activation ± SE: −6.4 ± 1.5 Fold
P. aeruginosa biofilms [3]; gene: Hypothetical protein (PA1893), negative = repression
  Fold activation ± SE: −2.4 ± 0.3 Fold
P. aeruginosa biofilms [3]; gene: Hypothetical protein (PA2703)
  Fold activation ± SE: 19.3 ± 3.7 Fold
P. aeruginosa biofilms [3]; gene: Hypothetical protein (PA3884), negative = repression
  Fold activation ± SE: −14.7 ± 5.7 Fold
P. aeruginosa biofilms [3]; gene: Hypothetical protein (PA4326)
  Fold activation ± SE: 23.2 ± 7.5 Fold
P. aeruginosa biofilms [3]; gene: Hypothetical protein of bacteriophage PF1 (PA0721), negative = repression
  Fold activation ± SE: −3.9 ± 1.0 Fold
P. aeruginosa biofilms [3]; gene: Hypothetical protein of bacteriophage PF1 (PA0725), negative = repression
  Fold activation ± SE: −3.1 ± 0.5 Fold
P. aeruginosa biofilms [3]; gene: Probable DNA binding protein (PA5348)
  Fold activation ± SE: 18.1 ± 4.9 Fold
P. aeruginosa biofilms [3]; gene: Probable drug efflux protein (PA1541)
  Fold activation ± SE: 4.7 ± 1.4 Fold
P. aeruginosa biofilms [3]; gene: Probable metal transporting P-type ATPase (PA3920)
  Fold activation ± SE: 3.6 ± 1.1 Fold
P. aeruginosa biofilms [3]; gene: Probable transcriptional regulator (PA3574)
  Fold activation ± SE: 3.3 ± 0.6 Fold
P. aeruginosa biofilms [3]; gene: Ribosome modulation factor (PA3049)
  Fold activation ± SE: 24.7 ± 11.4 Fold
P. aeruginosa biofilms [3]; gene: Urease beta subunit (PA4867), negative = repression
  Fold activation ± SE: −3.7 ± 1.1 Fold
P. aeruginosa biofilms [3]; [5]
  number of genes activated by tobramycin: 14
  number of genes differentially expressed in tobramycin-treated biofilms: Twenty
  number of genes repressed by tobramycin: 6
P. aeruginosa biofilms [4]
  effect on cell numbers in biofilms: did not significantly affect cell numbers in biofilms
